The test system of data set [1] is HIV-1 IIIB. Nature of the data set: Virucidal assay: virus pre-incubated with compound, diluted, titrated on MT-4 cells. The settings on record: virus incubated 1 h 37°C with 0.5%; no drug 1 × 10^6.
Data set [2] has as its system HIV-2 ROD. Described as above. The conditions noted are these: virus incubated 1 h 37°C with 0.5%; no drug 5.4 × 10^6.
In data set [3] the test system is HIV-1 virus particles. Nature of the data set: Virion-associated p24 of pre-treated, compound-cleared virus (ELISA). The settings on record: compound-cleared HIV-1 virus stock. Background: ELISA stands for enzyme-linked immunosorbent assay.
Data set [4] has as its system HIV-1 virus particles. In words: Virion-associated genomic RNA of pre-treated virus (RT-qPCR, Northern blot). The settings on record: compound-cleared HIV-1 virus stock, RT-qPCR or Northern blot. In general terms: Quantitative PCR measures a nucleic acid by following its amplification.
Data set [5] relates to HIV-2 ROD. Nature of the data set: Anti-HIV activity in CEM cells (cytopathogenicity). The format is cell-based. (In general: Damage to the host cells serves as the signal in cytopathic effect assays.)
Data set [6] has as its system HIV-2 ROD. Nature of the data set: MT-4/MTT-assay, protection against virus-induced cytopathic effect. It counts as cell-based. The settings on record: MT-4 cells, MTT, 5 days after infection.
Data set [7] deals with HIV-1 IIIB. In words: Anti-HIV activity in CEM cells (cytopathogenicity). The format is cell-based.
The next data set has as its system MT-4 cells. In words: Cytotoxicity in mock-infected MT-4 cells (MTT). It counts as cell-based.
Data set [8] concerns human T-lymphocyte (CEM) cells. In words: Cytostatic activity, CEM cell proliferation. It counts as cell-based.
The next data set relates to SIV Mac251. In words: MT-4/MTT-assay, protection against virus-induced cytopathic effect. The format is cell-based. The conditions noted are these: MT-4 cells, MTT, 5 days after infection.
Data set [9] deals with HIV-1 IIIB. Described as above. The conditions noted are these: MT-4 cells, MTT, 5 days after infection. It counts as cell-based.
The subject of data set [10] is HIV-1 IIIB chronically-infected HuT-78 cells. In words: Gag processing in virions from HIV-1 IIIB chronically-infected HuT-78 cells (western blot). The format is cell-based. The conditions noted are these: HuT-78/IIIB cells treated 43 hours; WDO-217 50, 25 μM; ritonavir 2.7 μM; SRR-SB3 75, 15 μM. Here is the method: Recently, it has been shown that this new mechanism involves acetylation of the NCp7 region of Gag, thereby blocking Gag processing.
HIV-1 IIIB virions from persistently infected HuT-78 cells treated with different concentrations of compound were analysed by gel electrophoresis and immunoblotted with antibody against capsid.
Chronically-infected HIV-1 IIIB HuT-78 cells (HuT-78/IIIB) were washed four times with PBS to remove all free virions before treatment and 2 × 10^5 cells were resuspended in 1 ml compound-containing medium for 43 hours at 37°C. Then, virions were prepared from clarified supernatants (10 min at 300 g) by centrifugation at 36670 g for 2 hours at 4°C. Protein from lysed virions were separated by SDS-PAGE on a NuPage® Novex 4-12% Bis-Tris gel (Invitrogen) and transferred on a hydrophobic polyvinylidene difluoride (PVDF) membrane (Amersham Hybond™-P). The blot was blocked overnight at 4°C by 5% dry milk powder in Western blot wash solution (WBWS; PBS + 0.5% Tween 20), washed three times for 5 minutes with WBWS and incubated with a mouse anti-HIV-1 p24 antibody (1:5000) from Abcam. The blot was then washed three times for 5 minutes with WBWS and incubated for 1 h with a goat anti-mouse IgG-HRP secondary antibody (1:2500) from Santa Cruz Biotechnology. […]

A further data set relates to NL4.3/AMD3100R. In words: microbe, parasite or virus in culture. It counts as cell-based, HIV-1. The settings on record: NL4.3/AMD3100R; EC50 for NL4.3 wild-type as 1.

In the case of Triton X-100 [reference compound], in the data set with HIV-1 IIIB [1], the “CCID50/ml HIV-1 IIIB” value worked out at 0 CCID50/ml. Also, in the data set on HIV-2 ROD [2], the “CCID50/ml HIV-2 ROD” value was 0 CCID50/ml. Besides, in the data set with HIV-1 virus particles [3], the “virus-associated p24 core protein after treatment” value is reported as “no p24 core protein nor viral genomic RNA could be detected”. For the same compound, the “viral genomic RNA content after treatment” value with HIV-1 virus particles [4] was “no p24 core protein nor viral genomic RNA could be detected”.
For the compound `Cc1cn([C@H]2C[C@H](N=[N+]=[N-])[C@@H](CO)O2)c(=O)[nH]c1=O` [AZT, reference compound], the EC50 in the data set on HIV-2 ROD [5] is 55 ± 20 nM; with HIV-2 ROD [6] it was 5 ± 0.8 nM; with HIV-1 IIIB [7], 58 ± 30 nM; in the data set with SIV Mac251 it was 16 ± 7 nM; in the data set on HIV-1 IIIB [9], 7 ± 1 nM. Besides, the CC50 in the data set on MT-4 cells is more than 35000 nM; in [8], more than 125000 nM.
Regarding `CC(C)c1nc(CN(C)C(=O)N[C@H](C(=O)N[C@@H](Cc2ccccc2)C[C@H](O)[C@H](Cc2ccccc2)NC(=O)OCc2cncs2)C(C)C)cs1` [ritonavir, reference compound], in data set [10], the “accumulation of unprocessed Gag polyprotein in progeny virus” value is listed as “did effectively increase”.
In the case of `c1cc(CN2CCCNCCNCCCNCC2)ccc1CN1CCCNCCNCCCNCC1` [AMD3100, reference compound], the “Fold resistance of mutant strain towards the respective inhibitor” value with NL4.3/AMD3100R is reported as “(>100)”.

In general, EC50 refers to the concentration that produces a half-maximal response. As usually defined, the CC50 is the concentration that lowers cell viability or growth by half.

(Values after paper PMC3542062, “A phenyl-thiadiazolylidene-amine derivative ejects zinc from retroviral nucleocapsid zinc fingers and inactivates HIV virions” (Retrovirology, 2012).)
